Results published in patent US8551999B2, “Heterocyclic compound and pharmaceutical composition thereof” (Otsuka Pharmaceutical Co., Ltd., priority 2007, dated 2013).
Counter-ions that a name gives are not always drawn.

Key:
[1] = system: LI90 cells, a human hepatic stellate cell line; assay: Inhibitory effect on collagen synthesis (in vitro); assay type: cell-based; settings: in the presence of recombinant human TGF-β1, 3H-proline labelled collagen in supernatant
Experimental: Inhibitory Effect on Collagen Synthesis (In Vitro)
LI90 cells, a human hepatic stellate cell line, were suspended in DMEM (Dulbecco's modified eagle medium) supplemented with 10% inactivated FBS (fetal bovine serum), seeded on a 12-well plate and cultured in a CO2 incubator (preset temperature: 37° C., preset CO2 concentration: 5%). After being cultured for 24 hours, the cells were washed with D-PBS (Dulbecco's phosphate buffered saline), placed in MEM (Eagle's minimum essential medium) supplemented with 0.1% inactivated FBS and then cultured in a CO2 incubator. After being cultured for 3 days, the cells were again washed with D-PBS, placed in MEM (Eagle's minimum essential medium) supplemented with 0.1% inactivated FBS and treated with or without a test compound in the presence of […] recombinant human TGF-β1 (transforming growth factor-β1) in a CO2 incubator for 16 hours. After the incubation, the cells were washed with D-PBS and the medium was replaced with MEM containing 0.25 mM ascorbate. A radio-labeled compound, ^3H-proline, was then added to the culture medium to radio-label the collagen proteins produced. After being cultured for 24 hours, the supernatant was collected and the collagen proteins were extracted from the supernatant as acid-soluble fractions. The amount of collagen produced was determined by measuring the radioactivity contained in the fractions. A concentration of test compound that produced 50% inhibition [IC50 value (nM)] on collagen synthesis was calculated by comparing the radioactivity count in a supernatant of test-compound-treated cells with that of untreated cells (control).

STAT3 = assay: Inhibitory effect on IL-6-induced STAT3 phosphorylation in human myeloma cells (in vitro); assay type: cell-based; settings: U266B1 human myeloma cells, IL-6 1 ng/mL, pSTAT3 (Y705) by flow cytometry
Experimental: The inhibitory effect of the test compound on phosphorylation of STAT3 (signal transducer and activator of transcription-3) in human myeloma cells ([…]) induced by interleukin-6 (IL-6) was examined using the modified method of Tochizawa S. et al. (J Immunol Methods. 2006 Jun. 30; 313(1-2): 29-37). In the study, U266B1 cells were seeded in an RPMI 1640 medium containing 10% fetal bovine serum (FBS) in a 12-well plate and incubated at 37° C. for 2 hours in the presence of carbon dioxide. After incubation, IL-6 was added to yield the concentration of 1 ng/mL and the cells were incubated at 37° C. for 15 minutes in the presence of 5% carbon dioxide. After fixation of the cells by the addition of a buffer containing formaldehyde (Lyse/Fix Buffer, BD Biosciences) at room temperature for 10 minutes, the suspension was centrifuged to remove the supernatant and the cells were treated with ice-cold methanol for 10 minutes to improve the permeability of the cell membrane. The cells were centrifuged to remove methanol and washed twice with Dulbecco's phosphate buffered saline (D-PBS) containing 2% fetal bovine serum (FBS). A fluorescence-labeled anti-phosphorylated STAT3 (pSTAT3) antibody (Alexa Fluor 488-labeled anti-pSTAT3 (Y705) antibody, BD Biosciences) was added for staining in an ice bath for 30 minutes.
The cells were washed once with 2% FBS-containing D-PBS and suspended in 2% FBS-containing D-PBS, and the fluorescence intensity was determined using a flow cytometer (FACS Sort, BD Biosciences). The ratio of fluorescence intensity in the test group to the control group (T/C) was determined from the difference in the geometric mean of pSTAT3 fluorescence intensity between the test compound group of each concentration and the non-stimulated control group according to the following equation by defining the difference in the geometric mean of pSTAT3 fluorescence intensity between the IL-6 induced control and the non-stimulated control as 100%. T/C(%)=([…] of pSTAT3 fluorescence intensity in the cells treated with the test compound—geometric mean of pSTAT3 fluorescence intensity in non-stimulated control)/(geometric mean of fluorescence intensity of IL-6-induced pSTAT3 in the control−geometric mean of pSTAT3 fluorescence intensity in non-stimulated control)×100.
The concentration of the test compound inhibiting phosphorylation of STATS at 50% (IC50; concentration of the test compound corresponding to 50% T/C(%)) was determined using T/C(%) values at the respective concentrations and defined as the index for the inhibitory activity.

With `CC(C)CN1CCN(C(=O)c2cc3cc(Oc4ccc(NC(=O)c5ccc(C(F)(F)F)cc5)cn4)ccc3n2C)CC1` [Example 547, N-{6-[2-(4-isobutylpiperazine-1-carbonyl)-1-methyl-1H-indol-5-yloxy]pyridin-3-yl}-4-trifluoromethylbenzamide] as the molecule, how does the IC50 [1] read?
Its IC50 is less than 10 nM.

With `COc1ccc(CN2CCN(C(=O)c3cc4cc(Oc5ncc(NC(=O)c6ccc(C(F)(F)F)cc6)cn5)ccc4n3C)CC2)cc1` [Example 380, N-(2-{2-[4-(4-Methoxybenzyl)piperazine-1-carbonyl]-1-methyl-1H-indol-5-yloxy}pyrimidin-5-yl)-4-trifluoromethylbenzamide] as the molecule, how does the IC50 [1] read?
The IC50 was less than 10 nM.

And the melting point?
Its melting point is 179 to 180 °C.

With `CC(C)Oc1ccc(CN2CCN(C(=O)c3cc4ccc(Oc5ncc(N(C)S(=O)(=O)c6ccc(Cl)c(Cl)c6)cn5)cc4n3C)CC2)cc1` [Example 43, 3,4-Dichloro-N-(2-{2-[4-(4-isopropoxybenzyl)piperazine-1-carbonyl]-1-methyl-1H-indol-6-yloxy}pyrimidin-5-yl)-N-methyl-benzenesulfonamide] as the molecule, how does the IC50 [1] read?
Its IC50 is less than 10 nM.

And the melting point?
Its melting point is 191.2 to 193 °C.

Which IC50 [1] does the source give for `Br.CN(C(=O)c1ccc(OC(F)(F)F)cc1)c1ccc(Oc2ccc3cc(C(=O)N4CCN(Cc5ccc(OC(CF)CF)cc5)CC4)n(C)c3c2)nc1` [Example 279, N-[6-(2-{4-[4-(2-Fluoro-1-fluoromethylethoxy)benzyl]piperazine-1-carbonyl}-1-methyl-1H-indol-6-yloxy)pyridin-3-yl]-N-methyl-4-tri-fluoromethoxybenzamide hydrobromide] here?
Its IC50 is less than 10 nM.

And the melting point?
The melting point was 227.5 to 230.3 °C.

Which IC50 (STAT3) does the source give for `CCOc1ccc(CN2CCN(C(=O)c3cc4cc(Oc5ccc(N(C)C(=O)c6ccc(C(F)(F)F)cc6)cn5)ccc4n3C)CC2)nc1.O=C(O)/C=C\C(=O)O` [Example 417, N-(6-{2-[4-(5-Ethoxypyridin-2-ylmethyl)piperazine-1-carbonyl]-1-methyl-1H-indol-5-yloxy}pyridin-3-yl)-N-methyl-4-trifluoromethyl-benzamide maleate] here?
The IC50 was less than 10 nM.

What about the melting point of the same molecule?
Its melting point is 129 to 130 °C.

Which results are given for `Br.CC(C)Oc1ccc(CN2CCN(C(=O)c3cc4ccc(Oc5ccc(N(C)C(=O)c6ccc(C(F)(F)F)cc6)cn5)cc4n3C)CC2)cc1` [Example 421, N-(6-{2-[4-(4-Isopropoxybenzyl)piperazine-1-carbonyl]-1-methyl-1H-indol-6-yloxy}pyridin-3-yl)-N-methyl-4-trifluoromethyl-benzamide hydrobromide]?
IC50 (STAT3): < 10 nM; melting point: 251 to 253 °C

With `Cc1ccc(S(=O)(=O)N(C)c2ccc(Oc3ccc4cc(C(=O)N5CCN(Cc6ccc(OCC(F)(F)F)cc6)CC5)[nH]c4c3)nc2)cc1` [Example 41, 4,N-Dimethyl-N-[6-(2-{4-[4-(2,2,2-trifluoroethoxy)benzyl]-piperazine-1-carbonyl}-1H-indol-6-yloxy)pyridin-3-yl]benzene-sulfonamide] as the molecule, how does the IC50 [1] read?
The IC50 was less than 10 nM.

And the melting point?
The melting point was 184 to 184.2 °C.

For `COc1ccc(CN(C)C2CCN(C(=O)c3cc4cc(Oc5ccc(NC(=O)c6ccc(C(F)(F)F)cc6)cn5)ccc4n3C)CC2)cc1` [Example 232, N-[6-(2-{4-[(4-Methoxybenzyl)methylamino]piperidine-1-carbonyl}-1-methyl-1H-indol-5-yloxy)pyridin-3-yl]-4-trifluoromethyl-benzamide oxalate], which IC50 [1] is on record?
The IC50 was less than 10 nM.

Which results are given for `CN(C(=O)c1ccc(C(F)(F)F)cc1)c1ccc(Oc2ccc3c(c2)cc(C(=O)N2CCN(Cc4ccc(OC(F)(F)C(F)F)cc4)CC2)n3C)nc1.O=C(O)/C=C\C(=O)O` [Example 403, N-Methyl-N-[6-(1-methyl-2-{4-[4-(1,1,2,2-tetrafluoroethoxy)-benzyl]piperazine-1-carbonyl}-1H-indol-5-yloxy)pyridin-3-yl]-4-trifluoromethylbenzamide maleate]?
IC50 (STAT3): < 10 nM; melting point: 137 to 139 °C

With `CCOc1ccc(CN2CCN(C(=O)c3cc4cc(Oc5ccc(N(C)C(=O)c6ccc(C(F)(F)F)cc6)cn5)ccc4n3C)CC2)cc1.O=C(O)/C=C\C(=O)O` [Example 342, N-(6-{2-[4-(4-Ethoxybenzyl)piperazine-1-carbonyl]-1-methyl-1H-indol-5-yloxy}pyridin-3-yl)-N-methyl-4-trifluoromethylbenzamide maleate] as the molecule, how does the IC50 (STAT3) read?
Its IC50 is less than 10 nM.

What about the melting point of the same molecule?
The melting point was 131 to 135 °C.

With `Br.Cn1c(C(=O)N2CCN(Cc3cnc(-c4ccc(C(F)(F)F)cc4)s3)CC2)cc2cc(Oc3ccc(NC(=O)c4ccc(C(F)(F)F)cc4)cn3)ccc21` [Example 572, N-[6-(1-Methyl-2-{4-[2-(4-trifluoromethylphenyl)thiazol-5-yl-methyl]piperazine-1-carbonyl}-1H-indol-5-yloxy)pyridin-3-yl]-4-trifluoromethylbenzamide hydrobromide] as the molecule, how does the IC50 [1] read?
The IC50 was less than 10 nM.

And the melting point?
Its melting point is 218.9 to 220.8 °C.

Which results are given for `Br.CN(C(=O)c1ccc(C(F)(F)F)cc1)c1ccc(Oc2ccc3cc(C(=O)N4CCN(Cc5ccc(C#N)cc5)CC4)n(C)c3c2)nc1` [Example 321, N-(6-{2-[4-(4-Cyanobenzyl)piperazine-1-carbonyl]-1-methyl-1H-indol-6-yloxy}pyridin-3-yl)-N-methyl-4-trifluoromethylbenzamide hydrobromide]?
IC50 (STAT3): < 10 nM; melting point: 267 to 270 °C

For `COc1ccc(/C=C/CN2CCN(C(=O)c3cc4cc(Oc5ccc(NC(=O)c6ccc(C(F)(F)F)cc6)cn5)ccc4n3C)CC2)cc1.CS(=O)(=O)O` [Example 357, N-[6-(2-{4-[(E)-3-(4-Methoxyphenyl)allyl]piperazine-1-carbonyl}-1-methyl-1H-indol-5-yloxy)pyridin-3-yl]-4-trifluoromethyl-benzamide methanesulfonate], which IC50 [1] is on record?
The IC50 was less than 10 nM.

And the melting point?
The melting point was 246 to 249 °C (dec.).

With `Br.Cn1c(C(=O)N2CCN(Cc3ccc(OC(F)F)cc3)CC2)cc2cc(Oc3ccc(NC(=O)c4ccc(C(F)(F)F)cc4)cn3)ccc21` [Example 400, N-(6-{2-[4-(4-Difluoromethoxybenzyl)piperazine-1-carbonyl]-1-methyl-1H-indol-5-yloxy}pyridin-3-yl)-4-trifluoromethylbenzamide hydrobromide] as the molecule, how does the melting point read?
Its melting point is 229 to 231 °C.

With `CN(C(=O)c1ccc(C(F)(F)F)cc1F)c1ccc(Oc2ccc3cc(C(=O)N4CCN(Cc5ccc(OC(F)F)cc5)CC4)n(C)c3c2)nc1.Cl` as the molecule, how does the melting point read?
Its melting point is 228.7 to 230.4 °C.

For `Br.CN(C(=O)c1ccc(Cl)c(Cl)c1)c1ccc(Oc2ccc3c(c2)cc(C(=O)N2CCN(Cc4ccc5c(c4)OCO5)CC2)n3C)nc1` [Example 6, N-{6-[2-(4-Benzo[1,3]dioxol-5-ylmethylpiperazine-1-carbonyl)-1-methyl-1H-indol-5-yloxy]pyridin-3-yl}-3,4-dichloro-N-methyl-benzamide hydrobromide], which melting point is on record?
Its melting point is 222 to 226 °C.

For `Br.Br.CN(C(=O)c1ccc(Cl)c(Cl)c1)c1ccc(Oc2ccc3c(c2)cc(C(=O)N2CCN(Cc4ccncc4)CC2)n3C)nc1` [Example 554, 3,4-Dichloro-N-methyl-N-{6-[1-methyl-2-(4-pyridin-4-ylmethyl-piperazine-1-carbonyl)-1H-indol-5-yloxy]pyridin-3-yl}benzamide dihydrobromide], which melting point is on record?
Its melting point is 204 to 208 °C (dec.).

For `Br.CN(C(=O)c1ccc(Cl)c(Cl)c1)c1ccc(Oc2ccc3c(c2)cc(C(=O)N2CCN(Cc4ccccc4)CC2)n3C)nc1` [Example 330, N-{6-[2-(4-Benzylpiperazine-1-carbonyl)-1-methyl-1H-indol-5-yl-oxy]pyridin-3-yl}-3,4-dichloro-N-methylbenzamide hydrobromide], which melting point is on record?
Its melting point is 210 to 213 °C.
